In ChEMBL document CHEMBL3244022, “Total syntheses of (+/-)-1-carbacefoxitin and -cefamandole and (+/-)-1-oxacefamandole” (1977):
In brackets after ≈: the same amount, converted by molar mass.

What was measured:
Format in all cases: functional
Proteus vulgaris = test: Antimicrobial activity against Proteus vulgaris 2829 by agar dilution method
Serratia = test: Antimicrobial activity against Serratia 2852 by agar dilution method
Enterobacteriaceae [1] = test: Antimicrobial activity against Aerobacter 2826 by agar dilution method
Proteus mirabilis = test: Antimicrobial activity against Proteus mirabilis 2830 by agar dilution method
Streptococcus pyogenes = test: Antimicrobial activity against Streptococcus pyogenes 3124 by agar dilution method
Enterobacteriaceae [2] = test: Antimicrobial activity against Aerobacter 2828 by agar dilution method
Pseudomonas = test: Antimicrobial activity against Pseudomonas by agar dilution method
Providencia = test: Antimicrobial activity against Providencia 2851 by agar dilution method
Staphylococcus aureus = test: Antimicrobial activity against Staphylococcus aureus 2865 by agar dilution method
Morganella morganii = test: Antimicrobial activity against Proteus morganii 2834 by agar dilution method
Escherichia coli = test: Antimicrobial activity against Escherichia coli 2884 by agar dilution method
Klebsiella = test: Antimicrobial activity against Klebsiella 2882 by agar dilution method
Enterococcus = test: Antimicrobial activity against Enterococcus 2862 by agar dilution method
Enterobacter = test: Antimicrobial activity against Enterobacter 2902 by agar dilution method

Row | MIC (Proteus vulgaris) | MIC (Serratia) | MIC (Enterobacteriaceae [1]) | MIC (Proteus mirabilis) | MIC (Streptococcus pyogenes) | MIC (Enterobacteriaceae [2]) | MIC (Pseudomonas) | MIC (Providencia) | MIC (Staphylococcus aureus) | MIC (Morganella morganii) | MIC (Escherichia coli) | MIC (Klebsiella) | MIC (Enterococcus) | MIC (Enterobacter) | Structure (SMILES)
1 | 6.25 µg/mL | > 100 µg/mL | 1.56 µg/mL | 25 µg/mL | 3.12 µg/mL | > 100 µg/mL | > 100 µg/mL | 6.25 µg/mL | 1.56 µg/mL | 6.25 µg/mL | 1.56 µg/mL | 1.56 µg/mL | > 100 µg/mL | > 100 µg/mL | Cn1nnnc1SCC1=C(C(=O)O)N2C(=O)[C@@H](NC(=O)C(O)c3ccccc3)[C@H]2CC1 (mixture of isomers)
2 | 1.28 µg/mL (≈ 2.87 µM) | > 100 µg/mL | < 0.39 µg/mL | 100 µg/mL (≈ 224 µM) | < 0.39 µg/mL | 25 µg/mL (≈ 56 µM) | > 100 µg/mL | 2.56 µg/mL (≈ 5.73 µM) | < 0.39 µg/mL | 1.28 µg/mL (≈ 2.87 µM) | < 0.39 µg/mL | 0.78 µg/mL (≈ 1.75 µM) | 25 µg/mL (≈ 56 µM) | 12.5 µg/mL (≈ 28 µM) | Cn1nnnc1SCC1=C(C(=O)O)N2C(=O)[C@@H](NC(=O)[C@H](O)c3ccccc3)[C@H]2OC1 (racemic)
3 | 6.25 µg/mL (≈ 15.3 µM) | 50 µg/mL (≈ 122 µM) | 12.5 µg/mL (≈ 30.5 µM) | 12.5 µg/mL (≈ 30.5 µM) | 6.25 µg/mL (≈ 15.3 µM) | > 100 µg/mL | > 100 µg/mL | 6.25 µg/mL (≈ 15.3 µM) | 6.25 µg/mL (≈ 15.3 µM) | 6.25 µg/mL (≈ 15.3 µM) | 12.5 µg/mL (≈ 30.5 µM) | 6.25 µg/mL (≈ 15.3 µM) | > 100 µg/mL | > 100 µg/mL | CO[C@@]1(NC(=O)Cc2cccs2)C(=O)N2C(C(=O)O)=C(COC(N)=O)CC[C@@H]21 (racemic)
4 | 1.56 µg/mL (≈ 3.37 µM) | > 100 µg/mL | < 0.39 µg/mL | 6.25 µg/mL (≈ 13.5 µM) | < 0.39 µg/mL | 50 µg/mL (≈ 108 µM) | > 100 µg/mL | 3.12 µg/mL (≈ 6.75 µM) | < 0.39 µg/mL | 6.25 µg/mL (≈ 13.5 µM) | < 0.39 µg/mL | 1.56 µg/mL (≈ 3.37 µM) | 50 µg/mL (≈ 108 µM) | 50 µg/mL (≈ 108 µM) | Cn1nnnc1SCC1=C(C(=O)O)N2C(=O)[C@@H](NC(=O)[C@H](O)c3ccccc3)[C@H]2SC1 [CEFAMANDOLE]
5 | < 0.39 µg/mL | 25 µg/mL (≈ 58.5 µM) | 0.78 µg/mL (≈ 1.82 µM) | 1.56 µg/mL (≈ 3.65 µM) | 0.78 µg/mL (≈ 1.82 µM) | > 100 µg/mL | > 100 µg/mL | 1.56 µg/mL (≈ 3.65 µM) | 1.56 µg/mL (≈ 3.65 µM) | 6.25 µg/mL (≈ 14.6 µM) | 1.56 µg/mL (≈ 3.65 µM) | 3.12 µg/mL (≈ 7.3 µM) | > 100 µg/mL | > 100 µg/mL | CO[C@@]1(NC(=O)Cc2cccs2)C(=O)N2C(C(=O)O)=C(COC(N)=O)CS[C@@H]21 [CEFOXITIN]
